Measured values taken from article PMC6151428, “Discovery of Novel N-Substituted Prolinamido Indazoles as Potent Rho Kinase Inhibitors and Vasorelaxation Agents” (Molecules : A Journal of Synthetic Chemistry and Natural …, 2017).

Assays:
ROCK I = target: T1, ROCK I (Homo sapiens, UniProt Q13464); assay: Rho kinase activity assay (Cyclex CY-1160 kit); format: biochemical; details: for IC50: a: means of multiple experiments (N = 4), errors within 30% of the mean, b: single determinations, read-out: IC50 against ROCK I; for ROCK I activity compared in words: comparison with DL0805 or between series; for fold more active than DL0805 (ROCK I IC50): relative to DL0805 IC50 6.7 μM
T1 construct: purchased Cyclex, Nagoya, Japan CY-1160
Description: Briefly, the compounds at 20 μM were pre-incubated in a system wherein ROCK I (0.02 ng/μL) phosphorylates the kinase substrate’s myosin-binding subunit (MBS) pre-absorbed onto the microplate in the presence of Mg^2+ and ATP. Then, the system was washed after incubation at 30 °C for 30 min. 100 μL of horseradish peroxidase-conjugated anti-AF20 antibody was added to the wells and then incubated for 30 min at room temperature. The reaction system was then incubated with the substrate tetra-methylbenzidine (TMB), which can be catalyzed from a colorless solution to a blue solution. The absorbance was measured at a wavelength of 450 nm on a microplate reader. The color reflects the relative level of ROCK I activity. The inhibitory rates of the compounds on ROCK I were obtained from OD 450 nm and the IC50 values were calculated by nonlinear regression.

rat aortic rings [1] = assay: Vasorelaxant activity test, high-potassium model; details: rat aortic rings constricted with high K+ (60 mmol/L); a: mean N = 6; b: single determination; -- = No activity
Source text: (§1) Abnormalities in the Rho/ROCK signaling pathway are associated with various cardiovascular diseases, especially hypertension. The inhibition of the Rho/ROCK pathway can cause the vessels to relax. The norepinephrine (NE)- or potassium chloride (KCl)-induced model of the rat aortic ring can trigger sustained vessel contraction and is usually used to evaluate vasorelaxant activity. DL0805 has shown vasorelaxant activity. Therefore, the nine compounds with significant inhibition against ROCK I were further tested for their vasorelaxant activity in rat aortic rings in both the high-potassium and NE models (Table 3). […] The potent active compound 4b with excellent activity has been further evaluated, and further pharmacokinetic and safety evaluations are in progress.
(§2) Male Sprague-Dawley rats weighing 240–280 g (Vital River Laboratories, Beijing, China) were maintained in a 12-h light/dark cycle at 24 °C in a relative humidity of 60% room, and received food and water ad libitum. The animal care and handling were performed in accordance with the Guide for the Care and Use of Laboratory Animals published by the US National Institutes of Health and the Laboratories Institutional Animal Care and Use Committee of the Chinese Academy of Medical Science and Peking Union Medical College (ethic approval number: 00001012).
(§3) The vasorelaxant activity assay was performed as described previously. Briefly, the descending thoracic aorta was isolated after rats were euthanized by cervical dislocation. Then, the aorta was cut into ring segments (3–4 mm in length). The endothelial layer of the aorta was destroyed by gently rubbing the luminal surface with a moist cotton swab when necessary. Two stainless-steel triangles were inserted into the lumen of each ring. One triangle was fixed, and the other attached to a force transducer. Changes in isometric force were recorded on a BIOPAC polygraph (MP100WSW, Biopac Systems, Inc, Goleta, CA, USA). The rings were mounted in organ baths containing 10 mL Krebs-Henseleit (K-H) buffer with the following composition (mM): NaCl 120, KCl 4.8, MgSO4 1.4, KH2PO4 1.2, glucose 11.0, CaCl2 2.5, NaHCO3 25.0 and EDTA 0.01. The K-H buffer was continuously bubbled with 95% O2/5% CO2 at 37 °C. Rings were allowed to equilibrate for 60 min at a resting tension of 1.2 g with changes of buffer every 20 min.
(§4) After the equilibration period, the aortic rings were constricted with a high K^+ (60 mM) K-H solution to stimulate the tissue and to test its availability. Then, the rings were washed with normal K-H buffer to restore the basic tension of 1.2 g. The aortic rings were then stimulated with a high K^+ (60 mmol/L) K-H buffer ornorepinephrine (1 μM) to evaluate the vasorelaxant effects of the compounds. When the contraction reached the platform, compounds were added to the bath in batches at 5-min intervals to reach the accumulative concentrations of 1, 2, 5, 10, 25 and 50 μM. The tension of vessels was recorded and nonlinear regression was used to calculate the EC50 values.

rat aortic rings [2] = assay: Ex-vivo vasorelaxant activity in rat aortic rings (model not specified)
Source text: as §1
The vasorelaxant activity assay was performed as described previously. Briefly, the descending thoracic aorta was isolated after rats were euthanized by cervical dislocation. Then, the aorta was cut into ring segments (3–4 mm in length). […] Changes in isometric force were recorded on a BIOPAC polygraph (MP100WSW, Biopac Systems, Inc, Goleta, CA, USA). […]
After the equilibration period, the aortic rings were constricted with a high K^+ (60 mM) K-H solution to stimulate the tissue and to test its availability. […] The tension of vessels was recorded and nonlinear regression was used to calculate the EC50 values.

rat aortic rings [3] = assay: Vasorelaxant activity test, NE model; details: rat aortic rings constricted with norepinephrine (1 μM); a: mean N = 6; b: single determination; -- = No activity
Source text: as §1, §2, §3, §4

[4] = compound concentration 20 μM, single determinations

T1 sequence (Q13464 whole entry, species assumed): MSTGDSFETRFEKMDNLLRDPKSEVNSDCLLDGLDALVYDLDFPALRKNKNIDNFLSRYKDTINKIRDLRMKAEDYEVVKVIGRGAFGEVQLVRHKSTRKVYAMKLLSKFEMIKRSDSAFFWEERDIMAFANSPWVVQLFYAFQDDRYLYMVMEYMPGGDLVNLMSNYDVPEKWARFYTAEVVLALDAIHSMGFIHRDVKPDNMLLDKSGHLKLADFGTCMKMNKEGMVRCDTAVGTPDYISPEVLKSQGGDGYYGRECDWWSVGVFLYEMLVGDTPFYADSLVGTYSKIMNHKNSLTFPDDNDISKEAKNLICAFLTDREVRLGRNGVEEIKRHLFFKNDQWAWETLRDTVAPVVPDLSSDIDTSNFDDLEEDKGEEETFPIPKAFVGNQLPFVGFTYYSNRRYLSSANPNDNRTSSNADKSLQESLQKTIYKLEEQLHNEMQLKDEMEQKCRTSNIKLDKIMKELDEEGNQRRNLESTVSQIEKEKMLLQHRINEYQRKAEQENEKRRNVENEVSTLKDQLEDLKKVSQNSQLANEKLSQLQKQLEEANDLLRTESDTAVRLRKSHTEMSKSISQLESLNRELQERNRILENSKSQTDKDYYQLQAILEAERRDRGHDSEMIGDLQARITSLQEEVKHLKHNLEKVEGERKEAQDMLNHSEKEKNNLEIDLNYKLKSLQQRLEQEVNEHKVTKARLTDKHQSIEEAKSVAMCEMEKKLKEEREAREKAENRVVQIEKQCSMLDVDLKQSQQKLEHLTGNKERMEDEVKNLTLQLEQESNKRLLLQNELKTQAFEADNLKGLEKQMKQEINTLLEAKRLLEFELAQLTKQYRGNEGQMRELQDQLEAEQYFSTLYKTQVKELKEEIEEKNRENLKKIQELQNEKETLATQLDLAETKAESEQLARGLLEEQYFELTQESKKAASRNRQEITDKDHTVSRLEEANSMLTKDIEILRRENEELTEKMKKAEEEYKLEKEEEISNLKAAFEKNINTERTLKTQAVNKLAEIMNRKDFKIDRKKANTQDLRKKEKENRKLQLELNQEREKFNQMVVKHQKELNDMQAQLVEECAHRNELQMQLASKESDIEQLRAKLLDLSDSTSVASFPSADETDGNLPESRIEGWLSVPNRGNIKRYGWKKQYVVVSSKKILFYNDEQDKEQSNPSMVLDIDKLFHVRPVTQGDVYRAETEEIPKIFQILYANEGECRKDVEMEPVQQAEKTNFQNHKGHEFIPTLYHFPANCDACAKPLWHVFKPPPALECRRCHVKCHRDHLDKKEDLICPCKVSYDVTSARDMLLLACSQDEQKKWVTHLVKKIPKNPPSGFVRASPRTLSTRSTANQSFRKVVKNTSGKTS

inhibition at 20 µM (ROCK I; [4])	melting point	IC50 (ROCK I)	ROCK I activity compared in words (ROCK I)	fold more active than DL0805 (ROCK I IC50) (ROCK I)	EC50 (rat aortic rings [1])	EC50 (rat aortic rings [3])	% Inhibition of ROCK I (ROCK I; [4])	Compound	vasorelaxant activity compared with fasudil (rat aortic rings [2])
27.2%	200 to 201 °C							O=C(Nc1ccc2[nH]ncc2c1)C1CCCN1Cc1ccccc1 (centres unmarked) [Compound 2a, 1-Benzyl-N-(1H-indazol-5-yl)pyrrolidine-2-carboxamide]	
24.3%	199 to 201 °C							O=C(Nc1ccc2[nH]ncc2c1)[C@H]1CCCN1Cc1ccccc1 [Compound 2b, (R)-1-Benzyl-N-(1H-indazol-5-yl)pyrrolidine-2-carboxamide]	
24.6%	202 to 203 °C							O=C(Nc1ccc2[nH]ncc2c1)[C@@H]1CCCN1Cc1ccccc1 [Compound 2c, (S)-1-Benzyl-N-(1H-indazol-5-yl)pyrrolidine-2-carboxamide]	
26.6%	200 to 202 °C							Cc1ccc(CN2CCCC2C(=O)Nc2ccc3[nH]ncc3c2)cc1 (centres unmarked) [Compound 2d, N-(1H-Indazol-5-yl)-1-(4-methylbenzyl)pyrrolidine-2-carboxamide]	
	203 to 205 °C							Cc1ccc(CN2CCC[C@@H]2C(=O)Nc2ccc3[nH]ncc3c2)cc1 [Compound 2e, (R)-N-(1H-Indazol-5-yl)-1-(4-methylbenzyl)pyrrolidine-2-carboxamide]	
21.3%	204 to 206 °C							Cc1ccc(CN2CCC[C@H]2C(=O)Nc2ccc3[nH]ncc3c2)cc1 [Compound 2f, (S)-N-(1H-Indazol-5-yl)-1-(4-methylbenzyl)pyrrolidine-2-carboxamide]	
16%	195 to 196 °C							O=C(Nc1ccc2cn[nH]c2c1)C1CCCN1Cc1ccccc1 (centres unmarked) [Compound 3a, 1-Benzyl-N-(1H-indazol-6-yl)pyrrolidine-2-carboxamide]	
15%	192 to 193 °C							O=C(Nc1ccc2cn[nH]c2c1)[C@H]1CCCN1Cc1ccccc1 [Compound 3b, (R)-1-Benzyl-N-(1H-indazol-6-yl)pyrrolidine-2-carboxamide]	
23.7%	195 to 197 °C							O=C(Nc1ccc2cn[nH]c2c1)[C@@H]1CCCN1Cc1ccccc1 [Compound 3c, (S)-1-Benzyl-N-(1H-indazol-6-yl)pyrrolidine-2-carboxamide]	
73.2%	203 to 204 °C	0.27 µM	activity profiles superior to DL0805	24 fold	4 µM	5.62 µM		O=C(Nc1ccc2[nH]ncc2c1)C1CCN(Cc2ccccc2)C1 (centres unmarked) [Compound 4a, 1-Benzyl-N-(1H-indazol-5-yl)pyrrolidine-3-carboxamide]	comparable vasorelaxant activity to the approved drug fasudil
75.8%		0.17 µM	activity profiles superior to DL0805	39 fold	3.47 µM	4.07 µM		Cc1ccc(CN2CCC(C(=O)Nc3ccc4[nH]ncc4c3)C2)cc1 (centres unmarked) [Compound 4b, N-(1H-Indazol-5-yl)-1-(4-methylbenzyl)pyrrolidine-3-carboxamide]	comparable vasorelaxant activity to the approved drug fasudil
53.3%		1.86 µM	activity profiles superior to DL0805		5.8 µM	5.57 µM		COc1ccc(CN2CCC(C(=O)Nc3ccc4[nH]ncc4c3)C2)cc1 (centres unmarked) [Compound 4c, N-(1H-Indazol-5-yl)-1-(4-methoxybenzyl)pyrrolidine-3-carboxamide]	
62.5%	235 to 236 °C	0.51 µM	activity profiles superior to DL0805		58.1 µM	46.8 µM		O=C(Nc1ccc2[nH]ncc2c1)C1CCN(Cc2ccc(Br)cc2)C1 (centres unmarked) [Compound 4d, 1-(4-Bromobenzyl)-N-(1H-indazol-5-yl)pyrrolidine-3-carboxamide]	
24.5%	202 to 204 °C							N#Cc1ccc(CN2CCC(C(=O)Nc3ccc4[nH]ncc4c3)C2)cc1 (centres unmarked) [Compound 4f, 1-(4-Cyanobenzyl)-N-(1H-indazol-5-yl)pyrrolidine-3-carboxamide]	
63.8%	202 to 203 °C	1.41 µM	activity profiles superior to DL0805		19.5 µM	8.91 µM		O=C(Nc1ccc2[nH]ncc2c1)C1CCN(Cc2ccc(F)cc2)C1 (centres unmarked) [Compound 4g, 1-(4-Fluorobenzyl)-N-(1H-indazol-5-yl)pyrrolidine-3-carboxamide]	
54.8%	203 to 204 °C	0.42 µM	activity profiles superior to DL0805		32.4 µM	> 50 µM		O=C(Nc1ccc2[nH]ncc2c1)[C@H]1CCN(Cc2ccccc2)C1 [Compound 4h, (S)-1-Benzyl-N-(1H-indazol-5-yl)pyrrolidine-3-carboxamide]	
73.9%	203 to 204 °C	7.32 µM			6.02 µM	11.5 µM		O=C(Nc1ccc2[nH]ncc2c1)[C@@H]1CCN(Cc2ccccc2)C1 [Compound 4i, (R)-1-Benzyl-N-(1H-indazol-5-yl)pyrrolidine-3-carboxamide]	
42.5%	211 to 213 °C							O=C(Nc1ccc2[nH]ncc2c1)C1CCN(C(=O)c2ccccc2)C1 (centres unmarked) [Compound 5a, 1-Benzoyl-N-(1H-indazol-5-yl)pyrrolidine-3-carboxamide]	
54.9%	224 to 226 °C	11.5 µM			60.6 µM	15.6 µM		Cc1ccc(C(=O)N2CCC(C(=O)Nc3ccc4[nH]ncc4c3)C2)cc1 (centres unmarked) [Compound 5b, N-(1H-Indazol-5-yl)-1-(4-methylbenzoyl)pyrrolidine-3-carboxamide]	
19.1%	242 to 244 °C							COc1ccc(C(=O)N2CCC(C(=O)Nc3ccc4[nH]ncc4c3)C2)cc1 (centres unmarked) [Compound 5c, N-(1H-Indazol-5-yl)-1-(4-methoxybenzoyl)pyrrolidine-3-carboxamide]	
27.9%	250 to 251 °C							O=C(Nc1ccc2[nH]ncc2c1)C1CCN(C(=O)c2ccc(Br)cc2)C1 (centres unmarked) [Compound 5d, 1-(4-Bromobenzoyl)-N-(1H-indazol-5-yl)pyrrolidine-3-carboxamide]	
45.4%	177 to 178 °C							O=C(Nc1ccc2[nH]ncc2c1)C1CCN(C(=O)c2ccc([N+](=O)[O-])cc2)C1 (centres unmarked) [Compound 5e, N-(1H-Indazol-5-yl)-1-(4-nitrobenzoyl)pyrrolidine-3-carboxamide]	
55.2%	225 to 227 °C	7.26 µM			> 50 µM	> 50 µM		O=C(Nc1ccc2[nH]ncc2c1)C1CCN(C(=O)c2ccc(Cl)cc2)C1 (centres unmarked) [Compound 5f, 1-(4-Chlorobenzoyl)-N-(1H-indazol-5-yl)pyrrolidine-3-carboxamide]	
					5.47 µM	4.65 µM		O=S(=O)(c1cccc2cnccc12)N1CCCNCC1 [fasudil, reference compound]	
							44.7%	N-(1H-Indazol-5-yl)-1-(4-methoxybenzyl)pyrrolidine-3-carboxamide [Compound 4e]	
